Assay results as given in patent US5144010A, “Method of producing monoclonal auto-anti-idiotypic antibodies” (The Trustees of Columbia University in the City of New York, priority 1989, dated 1992).

Biological target: T1, adenosine receptor (Rattus norvegicus, UniProt P25099)
T1 sequence (P25099 1-326): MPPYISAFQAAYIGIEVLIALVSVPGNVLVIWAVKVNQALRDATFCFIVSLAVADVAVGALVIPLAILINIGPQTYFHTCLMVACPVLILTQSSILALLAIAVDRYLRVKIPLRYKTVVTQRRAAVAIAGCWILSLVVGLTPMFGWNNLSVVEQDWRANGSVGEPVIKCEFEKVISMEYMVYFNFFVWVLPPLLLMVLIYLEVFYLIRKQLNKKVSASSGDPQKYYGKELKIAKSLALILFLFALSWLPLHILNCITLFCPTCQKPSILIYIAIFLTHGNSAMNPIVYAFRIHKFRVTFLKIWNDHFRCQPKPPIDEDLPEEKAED
Assay: Binding of monoclonal anti-idiotypic antibodies to adenosine receptor preparation and rabbit anti-CPA
Details: adenosine receptor preparation from rat brain
Procedure: Protocols for immunization and fusion were essentially identical to that described previously for BisQ in Example 2. Immunization was effected with the RSA conjugate, but the BSA conjugate is just as satisfactory. Screening was conducted with the BSA conjugate and with a specifically purified rabbit antibody raised by immunization with the BSA conjugate. Specifically purified antibody was prepared in a manner analogous to that described for anti-BisQ antibody (1) except that the immunoadsorbent was N^6 -(carboxypentamethylene) adenosine linked to aminohexylsepharose (Pharmacia).

inhibition of the reaction of monoclonal anti-idiotypic antibodies with adenosine receptor: could be inhibited
Structure (SMILES): OC[C@H]1O[C@@H](n2cnc3c(NC4CCCCC4)ncnc32)[C@H](O)[C@@H]1O [N^6 -cyclohexyladenosine]
